# According to ChEMBL document CHEMBL6114968, “Discovery of BW710 as a potent, selective and orally bioavailable fibroblast growth factor receptor 2 (FGFR2) inhibitor” (Eur J Med Chem, 2025):
# Assays:
# [1] = test system: BaF3; assay: Antiproliferative activity against mouse BaF3 cells incubated for 72 hrs by CCK-8 assay; conditions: BaF3, 72 h
# [2] = test system: BaF3; assay: Antiproliferative activity against mouse BaF3 cells expressing FGFR1 incubated for 72 hrs by CCK-8 assay; type: functional, cell-based; conditions: BaF3, 72 h
# [3] = test system: BaF3; assay: Antiproliferative activity against mouse BaF3 cells expressing FGFR2 incubated for 72 hrs by CCK-8 assay; type: functional, cell-based; conditions: BaF3, 72 h
# [4] = Selectivity ratio of IC50 for antiproliferative activity against mouse BaF3 cells expressing FGFR1 to IC50 for antiproliferative activity against mouse BaF3 cells expressing FGFR2; type: functional
# [5] = MRT(0 to t) in mouse at 10 mg/kg, po; type: ADME, organism-based; conditions: in vivo
# [6] = Antiproliferative activity against FGFR2 amplified human SNU-16 cells measured after 72 hrs by CCK-8 assay; type: functional, cell-based; conditions: SNU-16, 72 h
# [7] = test system: A204; assay: Antiproliferative activity against FGFR1 amplified human A204 cells measured after 72 hrs by CCK-8 assay; type: functional, cell-based; conditions: A204, 72 h
# [8] = target: Fibroblast growth factor receptor 1 (Homo sapiens) (UniProt P11362); assay: Inhibition of FGFR1 (unknown origin) at 1 uM by KINOMEscan analysis relative to control
# [9] = Half life in mouse at 1 mg/kg, iv; type: ADME, organism-based; conditions: in vivo
# [10] = AUC(0 to t) in mouse at 10 mg/kg, po; type: ADME, organism-based; conditions: in vivo
# [11] = AUC(0 to t) in mouse at 1 mg/kg, iv; type: ADME, organism-based; conditions: in vivo
# [12] = target: Fibroblast growth factor receptor 2 (Homo sapiens) (UniProt P21802); assay: Inhibition of FGFR2 in human SNU-16 cells assessed as decrease in ERK1/2 phosphorylation incubated for 1 hr by Western blot analysis; type: cell-based; conditions: dose 0.5-100 nM
# [13] = target: Fibroblast growth factor receptor 2 (Homo sapiens) (UniProt P21802); assay: Inhibition of FGFR2 (unknown origin) at 1 uM by KINOMEscan analysis relative to control
# [14] = target: Fibroblast growth factor receptor 2 (Homo sapiens) (UniProt P21802); assay: Inhibition of FGFR2 in human SNU-16 cells assessed as decrease in Akt phosphorylation at Ser473 residue incubated for 1 hr by Western blot analysis; type: cell-based; conditions: dose 0.5-100 nM
# [15] = Cmax in mouse at 10 mg/kg, po; type: ADME, organism-based; conditions: in vivo
# [16] = target: Fibroblast growth factor receptor 3 (Homo sapiens) (UniProt P22607); assay: Inhibition of FGFR3 (unknown origin) at 1 uM by KINOMEscan analysis relative to control
# [17] = target: Fibroblast growth factor receptor 2 (Homo sapiens) (UniProt P21802); assay: Inhibition of FGFR2 phosphorylation in human SNU-16 cells incubated for 1 hr by Western blot analysis; type: cell-based; conditions: dose 0.5-100 nM
# [18] = Cmax in mouse at 1 mg/kg, iv; type: ADME, organism-based; conditions: in vivo
# [19] = test system: MDA-MB-453; assay: Antiproliferative activity against human MDA-MB-453 cells harboring FGFR4-Y367C measured after 72 hrs by CCK-8 assay; type: functional, cell-based; conditions: MDA-MB-453, 72 h
# [20] = Oral bioavailability in mouse at 10 mg/kg; type: ADME, organism-based; conditions: in vivo
# [21] = Clearance in mouse at 1 mg/kg, iv; type: ADME, organism-based; conditions: in vivo
# [22] = target: Fibroblast growth factor receptor 4 (Homo sapiens) (UniProt P22455); assay: Inhibition of FGFR4 (unknown origin) at 1 uM by KINOMEscan analysis relative to control
# [23] = Antiproliferative activity against FGFR2 amplified human KATO III stomach cancer cell line measured after 72 hrs by CCK-8 assay; type: functional, cell-based
# [24] = Antiproliferative activity against human RT-112 cells harboring FGFR3-TACC3 measured after 72 hrs by CCK-8 assay; type: functional, cell-based; conditions: RT-112, 72 h
# [25] = target: Fibroblast growth factor receptor 2 (Homo sapiens) (UniProt P21802); assay: Inhibition of FGFR2 in human SNU-16 cells assessed as decrease in FRS2-alpha phosphorylation at Tyr436 residue incubated for 1 hr by Western blot analysis; type: cell-based; conditions: dose 0.5-100 nM
# [26] = MRT(0 to t) in mouse at 1 mg/kg, iv; type: ADME, organism-based; conditions: in vivo
# [27] = Half life in mouse at 10 mg/kg, po; type: ADME, organism-based; conditions: in vivo
# Chain of Fibroblast growth factor receptor 2 (Homo sapiens) (P21802 22-821 limits assumed): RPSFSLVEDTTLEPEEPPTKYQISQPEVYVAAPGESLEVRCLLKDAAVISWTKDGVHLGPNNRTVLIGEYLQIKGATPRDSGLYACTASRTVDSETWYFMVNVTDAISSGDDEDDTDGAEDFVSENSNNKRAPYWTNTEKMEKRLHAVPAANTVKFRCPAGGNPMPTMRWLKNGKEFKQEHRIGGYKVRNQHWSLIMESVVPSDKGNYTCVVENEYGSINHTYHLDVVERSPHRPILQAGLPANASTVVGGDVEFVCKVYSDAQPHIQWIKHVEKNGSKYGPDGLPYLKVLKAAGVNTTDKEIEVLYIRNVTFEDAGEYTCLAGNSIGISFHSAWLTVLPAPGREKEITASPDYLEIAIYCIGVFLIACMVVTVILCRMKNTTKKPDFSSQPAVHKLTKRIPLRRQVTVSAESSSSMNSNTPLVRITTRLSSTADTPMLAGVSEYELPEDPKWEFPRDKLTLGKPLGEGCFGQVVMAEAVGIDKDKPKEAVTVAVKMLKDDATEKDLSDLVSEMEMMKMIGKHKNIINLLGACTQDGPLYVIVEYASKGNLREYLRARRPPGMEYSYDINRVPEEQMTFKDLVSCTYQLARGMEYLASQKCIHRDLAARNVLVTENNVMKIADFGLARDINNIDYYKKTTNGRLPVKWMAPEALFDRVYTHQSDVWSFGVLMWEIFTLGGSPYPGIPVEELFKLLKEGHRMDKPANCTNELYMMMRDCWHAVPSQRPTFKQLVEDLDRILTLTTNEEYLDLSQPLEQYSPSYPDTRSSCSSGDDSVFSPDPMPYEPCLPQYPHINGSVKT
# Chain of Fibroblast growth factor receptor 4 (Homo sapiens) (P22455 22-802 limits assumed): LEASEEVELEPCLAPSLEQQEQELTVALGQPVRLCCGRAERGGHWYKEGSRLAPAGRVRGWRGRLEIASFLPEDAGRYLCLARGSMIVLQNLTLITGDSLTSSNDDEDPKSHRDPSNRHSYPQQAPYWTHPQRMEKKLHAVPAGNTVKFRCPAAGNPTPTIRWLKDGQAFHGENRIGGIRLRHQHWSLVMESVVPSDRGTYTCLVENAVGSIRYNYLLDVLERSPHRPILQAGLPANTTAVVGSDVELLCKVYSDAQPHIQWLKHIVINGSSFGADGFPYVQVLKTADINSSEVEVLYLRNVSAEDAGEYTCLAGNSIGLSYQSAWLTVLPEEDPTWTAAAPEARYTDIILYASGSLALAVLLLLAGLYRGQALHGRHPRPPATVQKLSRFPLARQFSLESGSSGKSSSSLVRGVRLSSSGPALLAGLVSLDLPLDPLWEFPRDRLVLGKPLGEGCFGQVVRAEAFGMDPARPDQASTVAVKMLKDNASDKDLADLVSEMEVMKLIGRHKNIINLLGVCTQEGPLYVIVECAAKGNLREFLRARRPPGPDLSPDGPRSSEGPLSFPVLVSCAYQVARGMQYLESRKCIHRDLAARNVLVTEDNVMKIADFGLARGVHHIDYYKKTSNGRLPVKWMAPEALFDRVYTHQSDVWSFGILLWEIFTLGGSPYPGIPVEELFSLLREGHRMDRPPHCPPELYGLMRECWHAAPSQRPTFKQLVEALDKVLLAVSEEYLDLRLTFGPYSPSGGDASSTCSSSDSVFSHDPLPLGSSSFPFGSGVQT
# Chain of Fibroblast growth factor receptor 3 (Homo sapiens) (P22607 23-806 limits assumed): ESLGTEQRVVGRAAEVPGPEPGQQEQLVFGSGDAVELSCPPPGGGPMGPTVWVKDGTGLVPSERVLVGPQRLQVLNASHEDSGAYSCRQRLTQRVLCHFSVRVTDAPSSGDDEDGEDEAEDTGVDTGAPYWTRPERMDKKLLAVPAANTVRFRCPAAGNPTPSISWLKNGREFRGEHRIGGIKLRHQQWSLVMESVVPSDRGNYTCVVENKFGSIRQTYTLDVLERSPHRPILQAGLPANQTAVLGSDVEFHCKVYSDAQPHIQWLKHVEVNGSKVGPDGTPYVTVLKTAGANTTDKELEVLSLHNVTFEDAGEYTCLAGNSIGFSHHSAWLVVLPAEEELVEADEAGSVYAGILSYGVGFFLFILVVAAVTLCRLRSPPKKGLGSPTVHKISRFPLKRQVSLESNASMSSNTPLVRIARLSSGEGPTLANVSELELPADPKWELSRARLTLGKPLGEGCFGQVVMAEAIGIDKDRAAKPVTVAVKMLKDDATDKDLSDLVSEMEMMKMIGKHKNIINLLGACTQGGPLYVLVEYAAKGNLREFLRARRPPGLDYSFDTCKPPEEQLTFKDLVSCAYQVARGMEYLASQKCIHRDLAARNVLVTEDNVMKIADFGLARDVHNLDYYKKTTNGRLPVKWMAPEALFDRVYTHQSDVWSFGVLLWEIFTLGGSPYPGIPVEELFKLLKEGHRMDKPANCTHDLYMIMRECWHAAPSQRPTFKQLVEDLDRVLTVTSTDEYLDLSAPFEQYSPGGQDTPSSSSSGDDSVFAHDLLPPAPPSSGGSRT
# Chain of Fibroblast growth factor receptor 1 (Homo sapiens) (P11362 22-822 limits assumed): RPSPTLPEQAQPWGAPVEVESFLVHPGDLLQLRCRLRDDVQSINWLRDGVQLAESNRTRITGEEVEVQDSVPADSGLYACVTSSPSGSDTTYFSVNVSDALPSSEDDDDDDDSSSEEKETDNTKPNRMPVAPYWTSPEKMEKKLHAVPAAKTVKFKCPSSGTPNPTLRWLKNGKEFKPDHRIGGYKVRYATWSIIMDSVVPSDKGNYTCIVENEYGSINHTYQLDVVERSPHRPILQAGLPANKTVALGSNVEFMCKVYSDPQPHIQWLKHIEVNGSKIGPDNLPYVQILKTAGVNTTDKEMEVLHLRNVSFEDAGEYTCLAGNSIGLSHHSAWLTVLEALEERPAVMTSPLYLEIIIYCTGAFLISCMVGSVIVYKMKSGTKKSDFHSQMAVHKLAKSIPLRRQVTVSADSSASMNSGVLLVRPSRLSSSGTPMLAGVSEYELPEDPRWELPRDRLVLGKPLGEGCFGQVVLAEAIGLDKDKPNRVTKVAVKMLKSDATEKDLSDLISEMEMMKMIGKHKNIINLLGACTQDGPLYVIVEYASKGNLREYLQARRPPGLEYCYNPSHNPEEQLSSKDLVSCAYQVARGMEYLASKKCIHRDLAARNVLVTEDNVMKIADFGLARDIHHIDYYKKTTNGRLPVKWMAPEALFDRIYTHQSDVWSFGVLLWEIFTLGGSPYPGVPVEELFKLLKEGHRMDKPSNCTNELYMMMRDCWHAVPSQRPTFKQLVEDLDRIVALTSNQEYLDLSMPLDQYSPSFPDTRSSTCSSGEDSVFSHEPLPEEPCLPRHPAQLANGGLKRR
smiles,measurement,setting,value
C=CC(=O)Nc1ccc(-c2c(-c3ccc(S4(=O)=NCCOCC4)cc3)c3c(N)ncnc3n2C)cc1 (stereo unspecified),IC50,[1],> 1000 nM
same,IC50,[2],> 1000 nM
same,IC50,[3],310 nM
C=CC(=O)Nc1ccc(-c2c(-c3ccc(S(=N)(=O)C4CCCCCC4)cc3)c3c(N)ncnc3n2C)cc1 (stereo unspecified),IC50,[1],> 1000 nM
same,IC50,[2],336 nM
same,IC50,[3],3.7 nM
C=CC(=O)Nc1ccc(-c2c(-c3ccc(S(=N)(=O)CC)cc3)c3c(N)ncnc3n2C)cc1 (stereo unspecified),IC50,[1],> 1000 nM
same,IC50,[2],> 1000 nM
same,IC50,[3],320 nM
C=CC(=O)Nc1ccc(-c2c(-c3ccc(S(=N)(=O)CC(C)(C)C)cc3)c3c(N)ncnc3n2C)cc1 (stereo unspecified),IC50,[1],> 1000 nM
same,IC50,[2],684 nM
same,IC50,[3],2.9 nM
C=CC(=O)Nc1ccc(-c2c(-c3ccc(S(=O)(CCC)=NC)cc3)c3c(N)ncnc3n2C)cc1 (stereo unspecified),IC50,[1],> 1000 nM
same,IC50,[2],> 1000 nM
same,IC50,[3],35.5 nM
C=CC(=O)Nc1ccc(-c2c(-c3ccc(S4(=O)=NCCCCC4)cc3)c3c(N)ncnc3n2C)cc1 (stereo unspecified),IC50,[1],> 1000 nM
same,IC50,[2],307 nM
same,Ratio IC50,[4],>279
same,IC50,[3],1.1 nM
C=CC(=O)Nc1ccc(-c2c(-c3ccc(S4(=O)=NCCC4)cc3)c3c(N)ncnc3n2C)cc1 (stereo unspecified),IC50,[1],> 1000 nM
same,IC50,[2],> 1000 nM
same,IC50,[3],12 nM
C=CC(=O)Nc1ccc(-c2c(-c3ccc(S4(=O)=NCCCC4)cc3)c3c(N)ncnc3n2C)cc1 (stereo unspecified),IC50,[1],> 1000 nM
same,IC50,[2],> 1000 nM
same,IC50,[3],12.1 nM
C=CC(=O)Nc1ccc(-c2c(-c3ccc(S(C)(=N)=O)cc3)c3c(N)ncnc3n2C)cc1 (stereo unspecified),IC50,[1],> 1000 nM
same,IC50,[2],> 1000 nM
same,IC50,[3],914 nM
C=C(C)C(=O)Nc1ccc(-c2c(-c3ccc(S4(=O)=NCCCCC4)cc3)c3c(N)ncnc3n2C)cc1F (stereo unspecified),IC50,[1],> 1000 nM
same,IC50,[2],> 1000 nM
same,IC50,[3],106 nM
C=C(C)C(=O)Nc1ccc(-c2c(-c3ccc(S4(=O)=NCCCCC4)cc3)c3c(N)ncnc3n2C)cc1 (stereo unspecified),IC50,[1],> 1000 nM
same,IC50,[2],> 1000 nM
same,IC50,[3],14.6 nM
C=CC(=O)Nc1ccc(-c2c(-c3ccc(S(=N)(=O)CC(C)C)cc3)c3c(N)ncnc3n2C)cc1 (stereo unspecified),IC50,[1],> 1000 nM
same,IC50,[2],> 1000 nM
same,IC50,[3],12.3 nM
C=CC(=O)Nc1ccc(-c2c(-c3ccc(S(=N)(=O)C4CC4)cc3)c3c(N)ncnc3n2C)cc1 (stereo unspecified),IC50,[1],> 1000 nM
same,IC50,[2],> 1000 nM
same,IC50,[3],61.9 nM
C=C(C)C(=O)Nc1ccc(-c2c(-c3ccc(Oc4nccc(C)n4)c(F)c3)c3c(N)ncnc3n2C)cc1 [LIRAFUGRATINIB],IC50,[2],493 nM
same,IC50,[3],2.4 nM
C=CC(=O)Nc1ccc(-c2c(-c3ccc(S(=N)(=O)C4CCCC4)cc3)c3c(N)ncnc3n2C)cc1 (stereo unspecified),IC50,[1],> 1000 nM
same,IC50,[2],885 nM
same,IC50,[3],6.6 nM
C=CC(=O)Nc1ccc(-c2c(-c3ccc(S(=O)(CC)=NC)cc3)c3c(N)ncnc3n2C)cc1 (stereo unspecified),IC50,[1],> 1000 nM
same,IC50,[2],> 1000 nM
same,IC50,[3],101 nM
C=C(C)C(=O)Nc1ccc(-c2c(-c3ccc(S4(=O)=NCCCCC4)cc3)c3c(N)ncnc3n2C)c(F)c1 (stereo unspecified),MRT last,[5],87.6 min
same,IC50,[6],6.7 nM
same,IC50,[7],2380 nM
same,inhibition,[8],14.7%
same,half-life,[9],52.2 min
same,IC50,[1],> 1000 nM
same,IC50,[2],> 1000 nM
same,AUC(0-t),[10],3650 ng·h/mL
same,AUC(0-t),[11],1270 ng·h/mL
same,inhibition,[12],Dose-dependent-effect
same,inhibition,[13],101%
same,inhibition,[14],Dose-dependent-effect
same,Cmax,[15],2910 ng/mL
same,inhibition,[16],13.7%
same,inhibition,[17],Dose-dependent-effect
same,Cmax,[18],4700 ng/mL
same,IC50,[19],2850 nM
same,bioavailability,[20],29%
same,IC50,[3],2.8 nM
same,clearance,[21],13.2 mL/min/kg
same,inhibition,[22],5.85%
same,IC50,[23],12.6 nM
same,IC50,[24],782 nM
same,inhibition,[25],Dose-dependent-effect
same,MRT last,[26],28.8 min
same,half-life,[27],64.8 min
C=CC(=O)Nc1ccc(-c2c(-c3ccc(S(=N)(=O)C4CCCCC4)cc3)c3c(N)ncnc3n2C)cc1 (stereo unspecified),IC50,[1],> 1000 nM
same,IC50,[2],787 nM
same,IC50,[3],8.9 nM
C=C(C)C(=O)Nc1ccc(-c2c(-c3ccc(S4(=O)=NCCCCC4)c(F)c3)c3c(N)ncnc3n2C)cc1 (stereo unspecified),IC50,[1],> 1000 nM
same,IC50,[2],> 1000 nM
same,IC50,[3],105 nM
C=CC(=O)Nc1ccc(-c2c(-c3ccc(S(=N)(=O)CCC)cc3)c3c(N)ncnc3n2C)cc1 (stereo unspecified),IC50,[1],> 1000 nM
same,IC50,[2],> 1000 nM
same,IC50,[3],70.1 nM
CCN1C(=O)N(c2c(F)c(OC)cc(OC)c2F)Cc2cnc3[nH]c(CN4CCOCC4)cc3c21 [PEMIGATINIB],IC50,[6],1.1 nM
same,IC50,[7],29.2 nM
same,IC50,[1],> 1000 nM
same,IC50,[2],19.8 nM
same,IC50,[19],150 nM
same,IC50,[3],2 nM
same,IC50,[23],1.8 nM
same,IC50,[24],10.9 nM
C=CC(=O)Nc1ccc(-c2c(-c3ccc(S(C)(=O)=Nc4ccccc4)cc3)c3c(N)ncnc3n2C)cc1 (stereo unspecified),IC50,[1],> 1000 nM
same,IC50,[2],429 nM
same,IC50,[3],101 nM
C=CC(=O)Nc1ccc(-c2c(-c3ccc(S(C)(=O)=NCC)cc3)c3c(N)ncnc3n2C)cc1 (stereo unspecified),IC50,[1],> 1000 nM
same,IC50,[2],> 1000 nM
same,IC50,[3],153 nM
C=CC(=O)Nc1ccc(-c2c(-c3ccc(S(=N)(=O)c4ccccc4)cc3)c3c(N)ncnc3n2C)cc1 (stereo unspecified),IC50,[1],> 1000 nM
same,IC50,[2],441 nM
same,IC50,[3],8.7 nM
C=CC(=O)Nc1ccc(-c2c(-c3ccc(S(C)(=O)=NC4CC4)cc3)c3c(N)ncnc3n2C)cc1 (stereo unspecified),IC50,[1],> 1000 nM
same,IC50,[2],> 1000 nM
same,IC50,[3],108 nM
C=CC(=O)Nc1ccc(-c2c(-c3ccc(S(C)(=O)=NC)cc3)c3c(N)ncnc3n2C)cc1 (stereo unspecified),IC50,[1],> 1000 nM
same,IC50,[2],> 1000 nM
same,IC50,[3],335 nM
CCC(=O)Nc1ccc(-c2c(-c3ccc(S4(=O)=NCCCCC4)cc3)c3c(N)ncnc3n2C)c(F)c1 (stereo unspecified),IC50,[6],1280 nM
same,IC50,[7],> 10000 nM
same,IC50,[1],> 1000 nM
same,IC50,[2],> 1000 nM
same,IC50,[19],4180 nM
same,IC50,[3],> 1000 nM
same,IC50,[23],2210 nM
same,IC50,[24],> 10000 nM
C=CC(=O)Nc1ccc(-c2c(-c3ccc(S(=N)(=O)C4CCC4)cc3)c3c(N)ncnc3n2C)cc1 (stereo unspecified),IC50,[1],> 1000 nM
same,IC50,[2],> 1000 nM
same,IC50,[3],45.8 nM
C=CC(=O)Nc1ccc(-c2c(-c3ccc(S(C)(=O)=NCCC)cc3)c3c(N)ncnc3n2C)cc1 (stereo unspecified),IC50,[1],> 1000 nM
same,IC50,[2],841 nM
same,IC50,[3],90.1 nM
C=CC(=O)Nc1ccc(-c2c(-c3ccc(S4(=O)=NCCCCC45CC5)cc3)c3c(N)ncnc3n2C)cc1 (stereo unspecified),IC50,[1],> 1000 nM
same,IC50,[2],385 nM
same,IC50,[3],3.6 nM
C=CC(=O)Nc1ccc(-c2c(-c3ccc(S4(=O)=NCCCCC45CCC5)cc3)c3c(N)ncnc3n2C)cc1 (stereo unspecified),IC50,[1],> 1000 nM
same,IC50,[2],176 nM
same,IC50,[3],1.5 nM
